Measured values as given in article PMC6522510 (Nature Communications, 2019).
pEC50: −log10 of the molar value.

Assays:
Test in all cases: cells
Set-up in all cases: species or system AML cell lines (8); Secondary HTS, 10-point dose-response in triplicate, Cell Titer Glo viability, four-parameter fit EC50
[1] = test system: MOLM-13; details: Homo sapiens, MOLM-13, 72 h, read-out: MOLM-13
[2] = test system: MV4-11; details: Homo sapiens, MV4-11, 72 h, read-out: MV4-11
[3] = test system: CHRF288-11; details: 72 h, read-out: CHRF288-11
[4] = test system: CMK; details: Homo sapiens, CMK, 72 h, read-out: CMK
[5] = test system: CMS; details: 72 h, read-out: CMS
[6] = test system: M07e; details: M-07e, 72 h, read-out: M07e
[7] = test system: ML-2; details: Homo sapiens, ML-2, 72 h, read-out: ML-2
[8] = test system: U937; details: Homo sapiens, U-937, 72 h, read-out: U937

| Compound | pEC50 [1] | pEC50 [2] | pEC50 [3] | pEC50 [4] | pEC50 [5] | pEC50 [6] | pEC50 [7] | pEC50 [8] |
| --- | --- | --- | --- | --- | --- | --- | --- | --- |
| COC1=C2C[C@@H](C)C[C@H](OC)[C@H](O)[C@@H](C)/C=C(\C)[C@H](OC(N)=O)[C@@H](OC)/C=C\C=C(/C)C(=O)NC(=CC1=O)C2=O [SJ000796035, GELDANOMYCIN] | 7.68 | 8.01 | < 5.00 | < 5.00 | < 5.00 | < 5.00 | < 5.00 | < 5.00 |
| COc1ccc(/C=C/c2ccccc2F)cc1 [SJ000796052, CAY10512] | < 5.00 | < 5.00 | < 5.00 | < 5.00 | < 5.00 | < 5.00 | < 5.00 | < 5.00 |
| CCNC(=O)c1cc2c(-c3cc(OCCN4CCCC4)c(Cl)cc3Cl)nc(N)nc2s1 [SJ000796085, NVP-BEP800] | 7.06 | 6.96 | 6.37 | 6.72 | 6.40 | < 5.00 | 6.68 | 6.82 |
| COC(=O)[C@H](CCSC)NC(=O)c1ccc(NC[C@@H](N)CS)cc1-c1ccccc1 [SJ000803699, FTI-277] | < 5.00 | < 5.00 | < 5.00 | < 5.00 | < 5.00 | < 5.00 | < 5.00 | < 5.00 |
| O=C(c1cn(Cc2cncn2Cc2ccc(Br)cc2)cc1-c1cccc2ccccc12)N1CCOCC1 [SJ000803701, LB 42708] | 5.60 | 5.30 | < 5.00 | < 5.00 | 5.47 | < 5.00 | 5.64 | < 5.00 |
| CSCC[C@@H](NC(=O)c1ccc(CNCc2cnc[nH]2)cc1-c1ccccc1C)C(=O)OCc1ccccc1 [SJ000803709, FTI-2628] | < 5.00 | < 5.00 | < 5.00 | < 5.00 | < 5.00 | < 5.00 | < 5.00 | 5.70 |
| CSCC[C@H](NC(=O)c1ccc(NC(=O)[C@@H](N)CS)cc1)C(=O)O [SJ000803714, H-CYS-4-ABZ-MET-OH] | < 5.00 | < 5.00 | < 5.00 | < 5.00 | < 5.00 | < 5.00 | < 5.00 | 5.57 |
| COC(=O)[C@H](CC(C)C)NC(=O)c1ccc(NCc2cnc[nH]2)cc1-c1cccc2ccccc12 [SJ000803715, GGTI-2147] | 5.96 | < 5.00 | < 5.00 | < 5.00 | < 5.00 | < 5.00 | < 5.00 | < 5.00 |
| CSCC[C@H](NC(=O)[C@H](Cc1ccccc1)NC[C@@H](NC[C@@H](N)CS)C(C)C)C(=O)O [SJ000803726, FTASE INHIBITOR I] | < 5.00 | < 5.00 | < 5.00 | < 5.00 | < 5.00 | < 5.00 | < 5.00 | < 5.00 |
| Cc1cc(C(C)Nc2ccccc2)c2nc(N3CCOCC3)cc(=O)n2c1 (centres unmarked) [SJ000803731, TGX-221] | 5.10 | < 5.00 | < 5.00 | < 5.00 | < 5.00 | < 5.00 | < 5.00 | < 5.00 |
| Cc1c(N)nc([C@H](CC(N)=O)NC[C@H](N)C(N)=O)nc1C(=O)N[C@H](C(=O)N[C@H](C)[C@@H](O)[C@H](C)C(=O)N[C@H](C(=O)NCCc1nc(-c2nc(C(=O)NCCC[S+](C)C)cs2)cs1)[C@@H](C)O)[C@@H](OC1OC(CO)C(O)C(O)C1OC1OC(CO)C(O)C(OC(N)=O)C1O)c1cnc[nH]1 (some centres unmarked) [SJ000804032, BLEOMYCIN] | 5.16 | < 5.00 | < 5.00 | < 5.00 | < 5.00 | < 5.00 | < 5.00 | < 5.00 |
| O=C(c1ccc(Nc2nccc(-c3cc4ccccc4s3)n2)cc1)N1CCC(N2CCCC2)CC1 [SJ000806482, IKK 16] | < 5.00 | < 5.00 | 6.00 | 5.55 | 6.35 | 5.36 | 6.38 | 5.82 |
| CCc1c(O)cc(O)c(C(=O)c2ccc(OCCN3CCOCC3)c(OC)c2)c1CC(=O)N(CCOC)CCOC [SJ000821566, KW-2478] | 6.96 | 7.15 | 5.20 | 5.36 | < 5.00 | < 5.00 | 6.80 | < 5.00 |
| CC(C)NCCCn1c(Sc2cc3c(cc2I)OCO3)nc2c(N)ncnc21 [SJ000821568, PU-H71] | 7.72 | 7.64 | 6.77 | 7.62 | 6.74 | < 5.00 | 7.09 | < 5.00 |
| Cc1cc(I)ccc1Nc1c(C(=O)NOCC2CC2)cc(F)c(F)c1F [SJ000821584, PD 198306] | < 5.00 | < 5.00 | < 5.00 | < 5.00 | < 5.00 | < 5.00 | < 5.00 | < 5.00 |
| CNC(=O)c1c(F)cccc1Nc1nc(Nc2cc3c(ccn3C(=O)CN(C)C)cc2OC)nc2[nH]ccc12 [SJ000821585, GSK1838705A] | < 5.00 | < 5.00 | < 5.00 | 5.24 | < 5.00 | < 5.00 | < 5.00 | 5.21 |
| CCOc1cc(N2CCC(O)CC2)ccc1Nc1ncc2c(n1)N(C)c1ccccc1C(=O)N2C [SJ000821586, XMD 8-92] | 5.03 | 5.49 | < 5.00 | 5.70 | < 5.00 | < 5.00 | < 5.00 | < 5.00 |
| COC(=O)[C@H](CC(C)C)NC(=O)c1ccc(NC[C@@H](N)CS)cc1-c1cccc2ccccc12 [SJ000821624, GGTI 298] | 5.19 | 5.19 | < 5.00 | < 5.00 | < 5.00 | < 5.00 | < 5.00 | 5.19 |
| CCCCNc1ncc2c(-c3ccc(CN4CCN(C)CC4)cc3)cn(C3CCC(O)CC3)c2n1 (centres unmarked) [SJ000821849, UNC2025A] | 7.68 | 9.00 | 5.19 | 5.34 | < 5.00 | 5.09 | 5.30 | 5.09 |
| CNC(=O)c1ccccc1Nc1nc(Nc2ccc(N3CCOCC3)cc2OC)ncc1Cl [SJ000822451, NVP-TAE226] | 6.15 | < 5.00 | 5.01 | 6.70 | < 5.00 | 5.12 | 5.60 | 5.35 |
| CC(N[C@H]1C[C@@H]1c1ccccc1)c1ccc2c(c1)OCCO2 (some centres unmarked) [SJ000832930, LSD1-C76] | < 5.00 | 9.00 | < 5.00 | < 5.00 | < 5.00 | < 5.00 | < 5.00 | < 5.00 |
| COc1ccc2nc3n[nH]c(C)c3c(NCCOCCO)c2c1 [SJ000832935, SCH 51344] | < 5.00 | < 5.00 | < 5.00 | < 5.00 | < 5.00 | < 5.00 | < 5.00 | < 5.00 |
